Assay results published in patent publication US20240158392A1 (Janssen Biotech, Inc., priority 2021, published 2024).

Columns and labels:
SIK2 [1] = molecular target: T1, SIK2 (Homo sapiens, UniProt Q9H0K1); test: SIK2 Enzymatic Assay Version 1 (ADP Glo); assay type: biochemical; details: enzyme 0.6 nM, 160 μM ATP and 140 μM HDAC5tide (each 2× final concentration); 30 minutes pre-incubation, 4 hours; ADPGlo luminescence; read-out: SIK2 ADP Glo IC50 (μM) (Test Example 1)
In short: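 Kinase activity read as ADP production by ADP-Glo luminescence, all steps at room temperature. Compound and SIK2 (0.6 nM, a 2× concentration) were preincubated 30 min; ATP-only wells lacking peptide were the negative control; depletion 40 min, detection ≥30 min.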

SIK2 [2] = molecular target: T1, SIK2; test: SIK2 Enzymatic Assay High Version 2 (High ATP); assay type: biochemical
In short: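 At room temperature, enzyme (6 nM, 2× final) was preincubated with compound for 30 min, then 6 mM ATP and 400 μM HDAC5tide (both 2× final) were added for 2 h. ADP formed was measured by ADP-Glo Max (2 h reagent, 1 h detection) using luminescence.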

T1 sequence (Q9H0K1 whole entry, species assumed): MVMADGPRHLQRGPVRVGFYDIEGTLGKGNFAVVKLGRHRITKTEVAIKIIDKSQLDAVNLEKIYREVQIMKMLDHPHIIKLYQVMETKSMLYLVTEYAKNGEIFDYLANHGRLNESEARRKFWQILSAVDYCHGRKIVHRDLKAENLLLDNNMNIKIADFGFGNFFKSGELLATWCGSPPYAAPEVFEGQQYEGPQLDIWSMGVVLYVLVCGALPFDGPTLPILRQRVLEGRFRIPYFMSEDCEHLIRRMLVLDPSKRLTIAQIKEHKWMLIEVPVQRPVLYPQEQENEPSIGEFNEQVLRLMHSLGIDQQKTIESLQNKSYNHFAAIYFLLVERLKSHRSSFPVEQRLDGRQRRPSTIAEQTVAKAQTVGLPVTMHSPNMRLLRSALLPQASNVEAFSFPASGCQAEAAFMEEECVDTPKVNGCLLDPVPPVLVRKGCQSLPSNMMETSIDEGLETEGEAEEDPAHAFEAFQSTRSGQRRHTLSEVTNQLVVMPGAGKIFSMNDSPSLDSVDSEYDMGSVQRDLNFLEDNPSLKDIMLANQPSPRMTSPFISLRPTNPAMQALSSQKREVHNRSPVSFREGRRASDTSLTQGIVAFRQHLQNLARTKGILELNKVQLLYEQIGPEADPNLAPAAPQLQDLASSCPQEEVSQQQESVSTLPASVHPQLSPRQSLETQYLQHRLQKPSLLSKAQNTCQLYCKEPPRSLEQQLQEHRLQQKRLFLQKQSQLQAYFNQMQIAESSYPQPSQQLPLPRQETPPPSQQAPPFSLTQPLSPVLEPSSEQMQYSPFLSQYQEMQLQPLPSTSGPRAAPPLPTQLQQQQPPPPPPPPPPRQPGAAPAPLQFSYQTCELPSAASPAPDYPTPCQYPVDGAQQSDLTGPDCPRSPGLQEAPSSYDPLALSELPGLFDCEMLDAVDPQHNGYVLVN

| SMILES | IC50 (SIK2 [1]) [µM] | IC50 (SIK2 [2]) [µM] |
| --- | --- | --- |
| CN1CCC[C@@H](COc2cnc(C#N)cc2-c2ccn3nc(NC(=O)C4CC4)cc3c2)C1 [Example 37, (R)—N-(5-(2-cyano-5-((1-methylpiperidin-3-yl)methoxy)pyridin-4-yl)pyrazolo[1,5-a]pyridin-2-yl)cyclopropanecarboxamide] | 0.00725 | 0.111 |
| CC(=O)N1CCC(Oc2cnc(C#N)cc2-c2ccn3nc(NC(=O)C4CC4)cc3c2)C1 (single isomer, unassigned) [Example 56, (*R)—N-(5-(5-((1-Acetylpyrrolidin-3-yl)oxy)-2-cyanopyridin-4-yl)pyrazolo[1,5-a]pyridin-2-yl)cyclopropanecarboxamide] | 0.0036 | 0.0692 |
| C[C@@H](O)COc1cnc(C#N)cc1-c1ccn2nc(NC(=O)C3CC3)cc2c1 [Example 94, N-[5-[2-cyano-5-[(2R)-2-hydroxypropoxy]-4-pyridyl]pyrazolo[1,5-a]pyridin-2-yl]cyclopropanecarboxamide] | 0.00847 | 0.167 |
| N#Cc1cc(-c2ccn3nc(NC(=O)C4CC4)cc3c2)c(O[C@H]2CCN(C3CC3)C2)cn1 [Example 7, N-[5-[2-cyano-5-[(3S)-1-cyclopropylpyrrolidin-3-yl]oxy-4-pyridyl]pyrazolo[1,5-a]pyridin-2-yl]cyclopropanecarboxamide] | 0.000725 | 0.0299 |
| N#Cc1cc(-c2ccn3nc(NC(=O)C4CC4)cc3c2)c(OCC2(O)CCCC2)cn1 [Example 42, N-[5-[2-cyano-5-[(1-hydroxycyclopentyl)methoxy]-4-pyridyl]pyrazolo[1,5-a]pyridin-2-yl]cyclopropanecarboxamide] | 0.00169 | 0.0455 |
| N#Cc1cc(-c2ccn3nc(NC(=O)C4CC4)cc3c2)c(OCC2CC2)cn1 [Example 584, N-[5-[2-cyano-5-(cyclopropylmethoxy)-4-pyridyl]pyrazolo[1,5-a]pyridin-2-yl]cyclopropanecarboxamide] | 0.00253 | 0.0353 |
| CN1CC[C@@H](COc2cnc(C#N)cc2-c2ccn3nc(NC(=O)C4CC4)cc3c2)C1 [Example 1, N-[5-[2-Cyano-5-[[(3R)-1-methylpyrrolidin-3-yl]methoxy]-4-pyridyl]pyrazolo[1,5-a]pyridin-2-yl]cyclopropanecarboxamide] | 0.00226 | 0.0591 |
| COCCN1CC[C@@H](Oc2cnc(C#N)cc2-c2ccn3nc(NC(=O)C4CC4)cc3c2)C1 [Example 111, (R)—N-[5-[2-cyano-5-[(3R)-1-(2-methoxyethyl)pyrrolidin-3-yl]oxy-4-pyridyl]pyrazolo[1,5-a]pyridin-2-yl]cyclopropanecarboxamide] | 0.00261 | 0.0479 |

The next lines start with the values.

| IC50 (SIK2 [1]) [µM] | IC50 (SIK2 [2]) [µM] | SMILES |
| --- | --- | --- |
| 0.000151 | < 0.000838 | Cc1cc(Nc2cc3cc(-c4cc(OC(C)C)ncc4OCC(C)(C)C#N)ccn3n2)nc(C)n1 [Example 663, 3-[[4-[2-[(2,6-dimethylpyrimidin-4-yl)amino]pyrazolo[1,5-a]pyridin-5-yl]-6-isopropoxy-3-pyridyl]oxy]-2,2-dimethyl-propanenitrile] |
| 0.0027 | 0.0399 | N#Cc1cc(-c2ccn3nc(NC(=O)C4CC4)cc3c2)c(O[C@@H]2CCNCC2(F)F)cn1 [Example 15, N-[5-[2-cyano-5-[[(4R)-3,3-difluoro-4-piperidyl]oxy]-4-pyridyl]pyrazolo[1,5-a]pyridin-2-yl]cyclopropanecarboxamide] |
| 0.0135 | 0.154 | N#Cc1cc(-c2ccn3nc(NC(=O)C4CC4)cc3c2)c(OCc2cccnc2)cn1 [Example 47, N-[5-[2-Cyano-5-(3-pyridylmethoxy)-4-pyridyl]pyrazolo[1,5-a]pyridin-2-yl]cyclopropanecarboxamide] |
| 0.00389 | 0.101 | Cn1ccc(Nc2cc3cc(-c4cc(C#N)ccc4OC[C@H]4CNCCO4)ccn3n2)n1 [Example 566, 3-[2-[(1-methylpyrazol-3-yl)amino]pyrazolo[1,5-a]pyridin-5-yl]-4-[[(2R)-morpholin-2-yl]methoxy]benzonitrile] |
